Some test systems named below: 786-0; A498; A549; ACHN; CCRF-CEM; HL-60; K562; M14; MCF7; MDA-MB-231; MDA-MB-435; NCI-H460; NCI/ADR-RES; RXF 393; SF-268; SF-539; SK-MEL-2; SK-OV-3; SN12C; SNB-19.
Assay in all cases: NCI tumour cell line growth inhibition, 48 h

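Results reflect a 48-hour exposure of cells in 96-well plates to compound at five concentrations. GI50 marks 50% less growth.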 Activity calls are given as the source filed them. No stated cut-off is given here; in the data, active = GI50 up to about 1.1 µM and inactive = higher.

Consider `COc1cc2c(c(O)c1C)C(=O)C(Cl)=CC2=O`, for which the GI50 with 786-0 is 11.6 µM (inactive); with A498, 19 µM (inactive); in the assay on A549, 22.1 µM (inactive); in the assay with ACHN, 6.4 µM (inactive); in the assay with CCRF-CEM, 0.918 µM (active); in the assay with HL-60 it was 0.933 µM (active). The GI50 in the assay with K562 is 2.26 µM (inactive); in the assay with M14, 6.47 µM (inactive); in the assay with MCF7, 6.85 µM (inactive); in the assay on MDA-MB-231, 12 µM (inactive); in the assay with MDA-MB-435, 7.46 µM (inactive); in the assay with NCI-H460, 24.9 µM (inactive). Also, the GI50 in the assay on NCI/ADR-RES was 22.6 µM (inactive); in the assay with RXF 393, 6.31 µM (inactive); in the assay on SF-268, 17.8 µM (inactive); with SF-539 it was 18.1 µM (inactive); with SK-MEL-2 it was 15.6 µM (inactive); in the assay with SK-OV-3, > 53.1 µM (inactive). Further, the GI50 in the assay on SN12C was 12.4 µM (inactive); in the assay with SNB-19 it was 42.3 µM (inactive).

The values above are taken from ChEMBL document CHEMBL1201862, “PubChem BioAssay data set” (2004).
